What was measured:
[1] = Long term and accelerated storage stability of the solid state form; assay type: physicochemical
[2] = Thermodynamic stability (resistance to polymorphic conversion) compared with forms I and II of WO'222; assay type: physicochemical; conditions: compared to forms I and II of Nilotinib fumarate described in WO'222
Text: As used herein, and unless indicated otherwise, the term “thermo-dynamical stability” in relation to solid state forms of the present disclosure refers to resistance of the solid state form to polymorphic conversion under certain conditions, for example, heating, melting or dissolving. […] In some embodiments, the conversion is about 1% (w/w) to about 20% (w/w), about 1% (w/w) to about 10% (w/w) or about 1% (w/w) to about 5% (w/w).

chemical and polymorphic stability ([1]; accelerated stability conditions at 25° C./60% RH with desiccant): chemically and polymorphically stable
chemical and polymorphic stability ([1]; long term stability conditions at 5° C.): chemically and polymorphically stable
thermodynamic stability [2]: thermodynamically more stable
Substance: Nilotinib fumarate [Form III of Nilotinib fumarate]

Source: patent US10640487B2, “Solid state forms of Nilotinib salts” (Teva Pharmaceuticals USA, Inc., priority 2016, dated 2020)
